In PubChem BioAssay AID250 (DTP/NCI, 2004):
Where “and” joins values, the source holds several entries; their conditions need not be identical. Equal values may be shown once. Inconclusive results and toxic doses are left out.

Test system: BDF1 mice, L1210 leukemia sc, survival T/C
Assay: NCI In Vivo Anticancer Drug Screen. Data for tumor model L1210 Leukemia (subcutaneous) in B6D2F1 (BDF1) mice
Conditions: higher = longer survival
How it was run: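 Mice carrying transplanted tumors received test compounds, and survival or tumor size was measured. Values are the treated-group measurement (T) divided by that of the vehicle-treated control group (C).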

In the case of `O=P1(N(CCCl)CCCl)NCCCO1` (centres undefined), the T/C (endpoint: mean survival time, dose: 70.0 mg/kg/injection, schedule: Q01DX001 (ip), vehicle: saline) is reported as 161 % of control, the T/C (endpoint: mean survival time, dose: 100.0 mg/kg/injection, schedule: Q08DX003 (sc), vehicle: saline) is reported as 190 % of control and the T/C (endpoint: mean survival time, dose: 140.0 mg/kg/injection, schedule: Q01DX001 (ip), vehicle: saline) is reported as 180 % of control. For the same compound, the T/C (endpoint: mean survival time, dose: 200.0 mg/kg/injection, schedule: Q01DX001 (ip), vehicle: saline) was 219 % of control, the T/C (endpoint: mean survival time, dose: 200.0 mg/kg/injection, schedule: Q08DX003 (sc), vehicle: saline) was 221 % of control and the T/C (endpoint: mean survival time, dose: 280.0 mg/kg/injection, schedule: Q01DX001 (ip), vehicle: saline) was 232 % of control. The T/C (endpoint: mean survival time, dose: 400.0 mg/kg/injection, schedule: Q08DX003 (sc), vehicle: saline) was 171 % of control, the T/C (endpoint: mean survival time, dose: 560.0 mg/kg/injection, schedule: Q01DX001 (ip), vehicle: saline) was 91 % of control and the T/C (endpoint: median survival time, dose: 6.25 mg/kg/injection, schedule: Q01DX009 (ip), vehicle: saline) was 104 % of control. For the same compound, the T/C (endpoint: median survival time, dose: 6.25 mg/kg/injection, schedule: Q01DX009 (sc), vehicle: saline) was 98 % of control and 101 % of control, the T/C (endpoint: median survival time, dose: 8.4 mg/kg/injection, schedule: Q01DX Z (ip), vehicle: saline) was 100 % of control and the T/C (endpoint: median survival time, dose: 10.8 mg/kg/injection, schedule: Q01DX001 (ip), vehicle: saline) was 150 % of control. For the same compound, the T/C (endpoint: median survival time, dose: 12.5 mg/kg/injection, schedule: Q01DX009 (sc), vehicle: saline) was 107 % of control and 112 % of control, the T/C (endpoint: median survival time, dose: 14.0 mg/kg/injection, schedule: Q01DX Z (ip), vehicle: saline) was 110 % of control and 117 % of control and the T/C (endpoint: median survival time, dose: 14.0 mg/kg/injection, schedule: Q01DX Z (oral), vehicle: saline) was 104 % of control. The T/C (endpoint: median survival time, dose: 14.0 mg/kg/injection, schedule: Q01DX Z (sc), vehicle: other) was 110 % of control, the T/C (endpoint: median survival time, dose: 14.0 mg/kg/injection, schedule: Q#A X Z (sc), vehicle: saline) was 220 % of control and the T/C (endpoint: median survival time, dose: 18.0 mg/kg/injection, schedule: Q01DX001 (ip), vehicle: saline) was 200 % of control. The T/C (endpoint: median survival time, dose: 23.0 mg/kg/injection, schedule: Q01DX Z (ip), vehicle: saline) was 165 % of control, the T/C (endpoint: median survival time, dose: 23.0 mg/kg/injection, schedule: Q01DX Z (oral), vehicle: saline) was 120 % of control and the T/C (endpoint: median survival time, dose: 23.0 mg/kg/injection, schedule: Q01DX Z (sc), vehicle: other) was 195 % of control. For the same compound, the T/C (endpoint: median survival time, dose: 23.0 mg/kg/injection, schedule: Q## X Z (sc), vehicle: saline) was 110 % of control, the T/C (endpoint: median survival time, dose: 25.0 mg/kg/injection, schedule: Q01DX009 (ip), vehicle: saline) was 122 % of control and the T/C (endpoint: median survival time, dose: 39.0 mg/kg/injection, schedule: Q01DX Z (ip), vehicle: saline) was 243 % of control. For the same compound, the T/C (endpoint: median survival time, dose: 39.0 mg/kg/injection, schedule: Q01DX Z (oral), vehicle: saline) was 155 % of control and 215 % of control and 221 % of control, the T/C (endpoint: median survival time, dose: 39.0 mg/kg/injection, schedule: Q02DX Z (sc), vehicle: saline) was 225 % of control and the T/C (endpoint: median survival time, dose: 39.0 mg/kg/injection, schedule: Q07DX Z (sc), vehicle: saline) was 113 % of control and 115 % of control and 123 % of control. For the same compound, the T/C (endpoint: median survival time, dose: 39.0 mg/kg/injection, schedule: Q## X Z (sc), vehicle: saline) was 150 % of control, the T/C (endpoint: median survival time, dose: 39.0 mg/kg/injection, schedule: Q#A X Z (sc), vehicle: saline) was 230 % of control and the T/C (endpoint: median survival time, dose: 50.0 mg/kg/injection, schedule: Q01DX009 (ip), vehicle: saline) was 162 % of control. The T/C (endpoint: median survival time, dose: 50.0 mg/kg/injection, schedule: Q01DX009 (sc), vehicle: saline) was 163 % of control and 181 % of control, the T/C (endpoint: median survival time, dose: 50.0 mg/kg/injection, schedule: Q08DX003 (sc), vehicle: saline) was 122 % of control and the T/C (endpoint: median survival time, dose: 65.0 mg/kg/injection, schedule: Q01DX Z (ip), vehicle: saline) was 213 % of control. The T/C (endpoint: median survival time, dose: 65.0 mg/kg/injection, schedule: Q01DX Z (oral), vehicle: saline) was 161 % of control and 182 % of control, the T/C (endpoint: median survival time, dose: 65.0 mg/kg/injection, schedule: Q01DX Z (sc), vehicle: other) was 240 % of control and the T/C (endpoint: median survival time, dose: 65.0 mg/kg/injection, schedule: Q07DX Z (sc), vehicle: saline) was 165 % of control and 175 % of control. For the same compound, the T/C (endpoint: median survival time, dose: 65.0 mg/kg/injection, schedule: Q#A X Z (sc), vehicle: saline) was 150 % of control, the T/C (endpoint: median survival time, dose: 69.0 mg/kg/injection, schedule: Q07DX003 (sc), vehicle: saline) was 188 % of control and 190 % of control and the T/C (endpoint: median survival time, dose: 100.0 mg/kg/injection, schedule: Q07DX003 (sc), vehicle: saline) was 244 % of control. The T/C (endpoint: median survival time, dose: 100.0 mg/kg/injection, schedule: Q07DX004 (sc), vehicle: saline) was 211 % of control and 213 % of control, the T/C (endpoint: median survival time, dose: 100.0 mg/kg/injection, schedule: Q16DX002 (sc), vehicle: saline) was 157 % of control and 161 % of control (2×) and the T/C (endpoint: median survival time, dose: 100.0 mg/kg/injection, schedule: Q## X002 (sc), vehicle: saline) was 155 % of control. The T/C (endpoint: median survival time, dose: 108.0 mg/kg/injection, schedule: Q01DX001 (sc), vehicle: other) was 160 % of control, the T/C (endpoint: median survival time, dose: 108.0 mg/kg/injection, schedule: Q01DX014 (sc), vehicle: saline) was 163 % of control and the T/C (endpoint: median survival time, dose: 108.0 mg/kg/injection, schedule: Q01DX Z (ip), vehicle: saline) was 113 % of control. For the same compound, the T/C (endpoint: median survival time, dose: 108.0 mg/kg/injection, schedule: Q01DX Z (oral), vehicle: saline) was 208 % of control and 240 % of control, the T/C (endpoint: median survival time, dose: 108.0 mg/kg/injection, schedule: Q01DX Z (sc), vehicle: other) was 180 % of control and the T/C (endpoint: median survival time, dose: 108.0 mg/kg/injection, schedule: Q07DX Z (sc), vehicle: saline) was 171 % of control. For the same compound, the T/C (endpoint: median survival time, dose: 108.0 mg/kg/injection, schedule: Q08DX003 (ip), vehicle: saline) was 109 % of control, the T/C (endpoint: median survival time, dose: 180.0 mg/kg/injection, schedule: Q01DX001 (sc), vehicle: other) was 191 % of control and the T/C (endpoint: median survival time, dose: 180.0 mg/kg/injection, schedule: Q01DX014 (sc), vehicle: saline) was 217 % of control. The T/C (endpoint: median survival time, dose: 180.0 mg/kg/injection, schedule: Q02DX Z (sc), vehicle: saline) was 170 % of control, the T/C (endpoint: median survival time, dose: 180.0 mg/kg/injection, schedule: Q07DX Z (sc), vehicle: saline) was 195 % of control and 226 % of control and the T/C (endpoint: median survival time, dose: 180.0 mg/kg/injection, schedule: Q08DX003 (ip), vehicle: saline) was 121 % of control. The T/C (endpoint: median survival time, dose: 200.0 mg/kg/injection, schedule: Q01DX001 (ip), vehicle: saline) was 200 % of control and 205 % of control, the T/C (endpoint: median survival time, dose: 200.0 mg/kg/injection, schedule: Q16DX002 (sc), vehicle: saline) was 183 % of control and 206 % of control (2×) and the T/C (endpoint: median survival time, dose: 200.0 mg/kg/injection, schedule: Q## X002 (sc), vehicle: saline) was 180 % of control. The T/C (endpoint: median survival time, dose: 256.0 mg/kg/injection, schedule: Q01DX001 (sc), vehicle: saline) was 213 % of control and 215 % of control, the T/C (endpoint: median survival time, dose: 300.0 mg/kg/injection, schedule: Q01DX001 (ip), vehicle: saline) was 240 % of control and 242 % of control and the T/C (endpoint: median survival time, dose: 300.0 mg/kg/injection, schedule: Q01DX001 (sc), vehicle: other) was 243 % of control. The T/C (endpoint: median survival time, dose: 300.0 mg/kg/injection, schedule: Q01HX002 (ip), vehicle: saline) was 113 % of control, the T/C (endpoint: median survival time, dose: 300.0 mg/kg/injection, schedule: Q07DX Z (sc), vehicle: saline) was 217 % of control and 219 % of control and the T/C (endpoint: median survival time, dose: 300.0 mg/kg/injection, schedule: Q08DX003 (ip), vehicle: saline) was 113 % of control. The T/C (endpoint: median survival time, dose: 300.0 mg/kg/injection, schedule: Q16DX002 (ip), vehicle: saline) was 115 % of control, the T/C (endpoint: median survival time, dose: 320.0 mg/kg/injection, schedule: Q01DX001 (sc), vehicle: saline) was 235 % of control and 240 % of control and the T/C (endpoint: median survival time, dose: 400.0 mg/kg/injection, schedule: Q07DX004 (sc), vehicle: saline) was 166 % of control. For the same compound, the T/C (endpoint: median survival time, dose: 400.0 mg/kg/injection, schedule: Q16DX002 (sc), vehicle: saline) was 222 % of control and 239 % of control (2×), the T/C (endpoint: median survival time, dose: 400.0 mg/kg/injection, schedule: Q## X002 (sc), vehicle: saline) was 220 % of control and the T/C (endpoint: median survival time, dose: 500.0 mg/kg/injection, schedule: Q01DX001 (sc), vehicle: other) was 217 % of control.
